What is called pKa is the pH at which an ionisable group is half protonated. One may read the LogP as the decadic logarithm of the partition coefficient of the neutral form, usually between octanol and water.

Read-outs that look alike come from different tables or passages of the source.

Results on three compounds are retold here after article PMC4257678, “Influence of Sampling on the Determination of Warfarin and Warfarin Alcohols in Oral Fluid” (PLoS ONE, 2014).

A short description of data set [1]: dissociation constant by HPLC-FLD at different mobile phase pH and methanol content. The conditions noted are these: for best aqueous pKa: psKa vs Rwt% extrapolated at zero organic content. The procedure: In brief, a standard working solution of WAROHs (1060 ng/mL) was prepared in a PBS buffer (25 mM at different pH value) and then analyzed in triplicate by HPLC-FLD. This approach is based on the different chromatographic behaviour of dissociated and non-dissociated forms of each compound at different pH values of the mobile phase. The pH was lowered in steps of 1 unit and ranged from 7.0 to 3.0. To reach the required pH, different aliquots of H3PO4 (85 wt% in H2O) were added to the mobile phase. The resulting pH was further checked by a pH-meter.
The capacity factor to pH variation ratio (Δk’/ΔpH) of both diastereoisomers was determined with different contents of organic modifiers (Rwt%: 40, 50 and 60) in the methanol-PBS mobile phase. The cosolvent dissociation constant (psKa) value was calculated by equation 1 [27]: [drawing 1] (1) where k’ HA and k’ A are the capacity factors of non-dissociate and dissociate forms, respectively. The pH and k’ values were defined as the corresponding point with a […] slope in the Δk’/ΔpH plot.
The dissociation constant (pKa) of both diastereoisomers of WAROHs was determined at different pH values of the mobile phase by the HPLC-FLD method by varying the organic solvent/water ratio.

The conditions of data set [2]: PBS 25 mM pH 7 / 1-octanol, 25°C, 24 hours, n = 3.
Experimental: The LogKow value at pH = 7 of both diastereoisomers of WAROHs was determined using the standardized OECD guidelines [25]. Briefly, a standard working solution of WAROHs (1000 ng/mL, C1) was prepared in triplicate in the PBS buffer (25 mM at pH = 7) and then mechanically stirred with an equal volume (4 mL) of 1-octanol at 25°C for 24 hours. The phase separation was obtained at room temperature by centrifuging at 5000 rpm for 5 min. […] The concentration in the organic phase was calculated by subtracting C2 and C3 from C1. LogKow at pH = 7 is expressed as the ratio of the compound concentration in the organic phase to that in the aqueous phase.
The value of LogKow at pH = 7 of both diastereoisomers of WAROHs was determined by the standardized shake-flask method. Octanol was added to a working solution of the WAROHs prepared in PBS at pH 7.0.
Assay in data set [3]: not given
The source holds these as a separate data set.

Details of data set [4]: method as in PMID 16867718. The conditions noted are these: T = 25°C; cited from earlier work.
Details of data set [5]: method as in PMID 16867718. Particulars: at 25°C; cited from earlier work.
Where [6] appears, read: 14 patients undergoing WAR therapy.

`CC(O)CC(c1ccccc1)c1c(O)c2ccccc2oc1=O` (centres unmarked) [RR/SS-warfarin alcohols]: in data set [1], the “best aqueous pKa” value is 6.55 ± 0.04. Also, the “LogKow at pH = 7” value in data set [2] was 0.83 ± 0.01. In addition, the “concentration in pooled patients oral fluid sample” value (Figure 2E, extracted PPOFS) is listed as 0.6 ng/mL. For the same compound, in data set [3] (setting [6]), the “total plasma concentration (mean ± s.d.)” value is recorded as 30 ± 20 ng/mL and the “total plasma concentration (range)” value lay in the range of 13 to 82 ng/mL.
As to `CC(O)CC(c1ccccc1)c1c(O)c2ccccc2oc1=O` (centres unmarked) [RS/SR-warfarin alcohols], the “best aqueous pKa” value in data set [1] is on record as 5.73 ± 0.03. Moreover, the “LogKow at pH = 7” value in data set [2] is listed as 0.93 ± 0.01. Under setting [6], the “concentration in non-stimulated OF samples (mean ± s.d.)” value was found to be 3 ± 2 ng/mL, the “concentration in non-stimulated OF samples (range)” value lay in the range of 1 to 5 ng/mL, the “concentration in stimulated OF samples (mean ± s.d.)” value worked out at 3 ± 2 ng/mL and the “concentration in stimulated OF samples (range)” value was 1 to 6 ng/mL. Also, the “concentration in pooled patients oral fluid sample” value (Figure 2E, extracted PPOFS) came to 10.1 ng/mL. Also, in data set [3] (setting [6]), the “total plasma concentration (mean ± s.d.)” value came out at 600 ± 300 ng/mL, the “total plasma concentration (range)” value was 100 to 1100 ng/mL, the “unbound plasma concentration (mean ± s.d.)” value came out at 5 ± 3 ng/mL and the “unbound plasma concentration (range)” value was 1 to 10 ng/mL.
Turning to `CC(=O)CC(c1ccccc1)c1c(O)c2ccccc2oc1=O` (stereo not drawn) [WAR, 3-(α-acetonylbenzyl)-4-hydroxycoumarin, reference compound], the pKa in data set [1] was found to be 5.42 ± 0.03. Besides, the “LogKow at pH = 7” value in data set [2] is given as 0.94 ± 0.05. Under “human, in vivo”, the “concentration in non-stimulated OF samples (mean ± s.d.)” value came out at 3 ± 2 ng/mL, the “concentration in non-stimulated OF samples (range)” value is 1 to 5 ng/mL, the “concentration in stimulated OF samples (mean ± s.d.)” value amounted to 6 ± 3 ng/mL and the “concentration in stimulated OF samples (range)” value lay within 1 to 14 ng/mL. In addition, under “human, in vivo, po”, the “concentration in pooled patients oral fluid sample” value is listed as 9.8 ng/mL. Also, in data set [3] (human, in vivo), the “total plasma concentration (mean ± s.d.)” value was 1300 ± 500 ng/mL, the “total plasma concentration (range)” value lay in the range of 400 to 2000 ng/mL, the “unbound plasma concentration (mean ± s.d.)” value was 9 ± 4 ng/mL and the “unbound plasma concentration (range)” value was in the range of 3 to 17 ng/mL. Further, in data set [4], the pKa is 5.15 ± 0.04. Also, in data set [5], the LogP is reported as 2.82 ± 0.06.
